Assay results reported in the supplement of paper PMC10307832.

Assays:
Assay in all cases: relative viability (nuclei count vs DMSO), 5 days (fraction); higher = more cells survive
Tosedostat + AZD7762 = compound: CC(C)C[C@@H](C(=O)N[C@H](C(=O)OC1CCCC1)c1ccccc1)[C@H](O)C(=O)NO [Tosedostat] + NC(=O)Nc1cc(-c2cccc(F)c2)sc1C(=O)N[C@H]1CCCNC1 [AZD7762] (partner 0.2 µM)
Procedure, shortened: (§1)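 Nuclei were stained with Hoechst during a one-step fixation (final 0.05% Triton X-100, 1% formaldehyde, 1 ug/ml Hoechst) carried out 5 days after dosing, then counted on 4× images. The cells, lung cancer lines in 1536-well plates, had been dosed by pin tool the day after seeding with one drug alone or a fixed anchor-drug dose plus five library-drug doses (not always all listed) in √10 steps. Relative viability is the nuclei count in treated wells divided by that in vehicle wells, and each value is the median of duplicate plates.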

[1] = compound: CC1=NN=C(O1)C2=NN=C(C=C2)N3CCC(CC3)OC4=C(C=CC(=C4)F)Cl + Cc1nc(NC(=O)N2CCC[C@H]2C(N)=O)sc1-c1ccnc(C(C)(C)C(F)(F)F)c1 [Alpelisib] (partner 2 µM)
Procedure, shortened: as §1

Tosedostat + Tozasertib = compound: CC(C)C[C@@H](C(=O)N[C@H](C(=O)OC1CCCC1)c1ccccc1)[C@H](O)C(=O)NO [Tosedostat] + Cc1cc(Nc2cc(N3CCN(C)CC3)nc(Sc3ccc(NC(=O)C4CC4)cc3)n2)n[nH]1 [Tozasertib] (partner 0.1 µM)
Procedure, shortened: as §1

Tosedostat + OSI-027 = compound: CC(C)C[C@@H](C(=O)N[C@H](C(=O)OC1CCCC1)c1ccccc1)[C@H](O)C(=O)NO [Tosedostat] + COc1cccc2cc(-c3nc([C@H]4CC[C@H](C(=O)O)CC4)n4ncnc(N)c34)[nH]c12 [OSI-027] (partner 0.5 µM)
Procedure, shortened: as §1

| Cell Line | relative viability (Tosedostat + AZD7762; first compound 0.02 µM) | relative viability (Tosedostat + AZD7762; first compound 0.06325 µM) | relative viability (Tosedostat + AZD7762; first compound 0.2 µM) | relative viability (Tosedostat + AZD7762; first compound 0.6325 µM) | relative viability (Tosedostat + AZD7762; first compound 2 µM) | relative viability ([1]; first compound 0.253 µM) | relative viability ([1]; first compound 0.8 µM) | relative viability ([1]; first compound 2.53 µM) | relative viability ([1]; first compound 8 µM) | relative viability (Tosedostat + Tozasertib; first compound 0.02 µM) | relative viability (Tosedostat + Tozasertib; first compound 0.06325 µM) | relative viability (Tosedostat + Tozasertib; first compound 0.2 µM) | relative viability (Tosedostat + Tozasertib; first compound 0.6325 µM) | relative viability (Tosedostat + Tozasertib; first compound 2 µM) | relative viability (Tosedostat + OSI-027; first compound 0.02 µM) | relative viability (Tosedostat + OSI-027; first compound 0.06325 µM) | relative viability (Tosedostat + OSI-027; first compound 0.2 µM) | relative viability (Tosedostat + OSI-027; first compound 0.6325 µM) | relative viability (Tosedostat + OSI-027; first compound 2 µM) |
| --- | --- | --- | --- | --- | --- | --- | --- | --- | --- | --- | --- | --- | --- | --- | --- | --- | --- | --- | --- |
| NCI-H2126 | 0.99 | 1.03 | 0.919 | 0.974 | 0.953 | 0.696 | 0.666 | 0.711 | 0.598 | 0.829 | 0.853 | 0.852 | 0.789 | 0.618 | 0.714 | 0.786 | 0.622 | 0.614 | 0.583 |
| HCC-15 | 1.25 | 1.17 | 1.29 | 1.31 | 1.15 | 0.661 | 0.578 | 0.582 | 0.584 | 0.571 | 0.415 | 0.43 | 0.274 | 0.346 | 0.751 | 0.718 | 0.579 | 0.467 | 0.46 |
| HCC-44 | 1.08 | 1 | 1.03 | 1.06 | 0.965 | 0.491 | 0.573 | 0.56 | 0.474 | 1.18 | 0.893 | 0.885 | 0.806 | 0.338 | 0.538 | 0.592 | 0.384 | 0.513 | 0.374 |
| HCC-78 | 0.355 | 0.771 | 0.65 | 0.738 | 0.791 | 0.318 | 0.309 | 0.308 | 0.321 | 0.414 | 0.509 | 0.426 | 0.461 | 0.406 | 0.33 | 0.377 | 0.406 | 0.364 | 0.376 |
| NCI-H1437 | 1.14 | 1.15 | 1.14 | 1.08 | 0.904 | 0.696 | 0.63 | 0.804 | 0.591 | 0.403 | 0.395 | 0.389 | 0.337 | 0.166 | 0.977 | 0.969 | 0.846 | 0.828 | 0.805 |
| NCI-H2347 | 0.631 | 0.821 | 0.863 | 0.745 | 0.682 | 0.788 | 0.758 | 0.801 | 0.682 | 0.519 | 0.509 | 0.504 | 0.435 | 0.41 | 0.364 | 0.203 | 0.459 | 0.353 | 0.427 |
| BEN | 0.813 | 0.724 | 0.901 | 1.12 | 1.04 | 0.767 | 0.899 | 1.05 | 0.901 | 0.535 | 0.523 | 0.429 | 0.326 | 0.252 | 0.298 | 0.292 | 0.286 | 0.31 | 0.326 |
| LCLC-103H | 0.886 | 0.713 | 0.69 | 0.77 | 0.852 | 0.792 | 0.946 | 0.775 | 0.776 | 0.508 | 0.512 | 0.545 | 0.407 | 0.276 | 0.553 | 0.417 | 0.491 | 0.502 | 0.472 |
| EKVX | 0.821 | 0.71 | 0.747 | 0.761 | 0.657 | 0.446 | 0.323 | 0.363 | 0.462 | 0.401 | 0.511 | 0.392 | 0.358 | 0.311 | 0.718 | 0.764 | 0.673 | 0.696 | 0.748 |
| ABC-1 | 1.2 | – | 0.755 | 0.822 | 0.732 | 0.729 | 0.567 | 0.568 | 0.642 | 0.17 | 0.194 | 0.137 | 0.118 | 0.17 | 0.588 | 0.546 | 0.423 | 0.391 | 0.406 |
| PC-3 [JPC-3] | 0.752 | 0.747 | 0.746 | 0.647 | 0.54 | 0.915 | 0.866 | 0.914 | 0.901 | 0.892 | 0.954 | 0.87 | 0.802 | 0.571 | 0.693 | 0.828 | 0.73 | 0.614 | 0.609 |
| NCI-H23 | 0.31 | 0.248 | 0.232 | 0.202 | 0.253 | 0.635 | – | 0.663 | 0.822 | 0.491 | 0.347 | 0.41 | 0.26 | 0.294 | 0.702 | 0.599 | 0.683 | 0.494 | 0.372 |
| NCI-H1793 | 0.458 | 0.584 | 0.546 | 0.231 | 0.338 | 0.716 | 0.773 | 0.717 | 0.559 | 0.289 | 0.386 | 0.295 | 0.31 | 0.289 | 0.264 | 0.271 | 0.293 | 0.258 | 0.24 |
| LC-2-ad | 0.929 | 0.85 | 0.873 | 0.8 | 0.918 | 0.429 | 0.371 | 0.382 | 0.341 | 0.472 | 0.454 | 0.403 | 0.297 | 0.281 | 1.03 | 0.756 | 0.758 | 0.698 | 0.645 |
